According to paper PMC6362038, “Secondary structures and cell-penetrating abilities of arginine-rich peptide foldamers” (Scientific Reports, 2019):
Numbered stars: 1 amine (or outer) side, 2 acyl side, 3 side chain; on linkers, the order of the positions; unused ones are H or OH. Square brackets hold non-standard residues; d marks the D form. Peptide text beside a SMILES is read from it. * marks the point of attachment. 5FAM = O=C1OC2(c3ccc(O)cc3Oc3cc(O)ccc32)c2ccc(C(=O)*)cc21; X1 = CO[C@H]1CC(N[*:1])(C(=O)[*:2])C[C@@H]1OC; αMeL = CC(C)C[C@](C)(N)C(=O)O; Ac5c = NC1(C(=O)O)CCCC1

Assays:
[1] = Circular dichroism, R value of secondary structure; type: physicochemical; conditions: CD, peptide 24 µM
Description: The conformations of peptides were analyzed by circular dichroism (CD) in pH 7.3 4-(2-hydroxyethyl)-1-piperazineethanesulfonic acid (HEPES) buffer (Fig. 3a), 40% 2,2,2-trifluoroethanol (TFE)/pH 7.3 HEPES buffer (Fig. 3b), and 75% TFE/pH 7.3 HEPES buffer (Fig. 3c). Negative maxima at 205–209 nm (π → π*) and 222–225 nm (n → π*) were diagnostic of a right-handed (P) helical structure[31]–[33]. The ratio of R (θπ → π*/θn → π*) has been used as a parameter to distinguish an α-helical structure from a 3_10-helical structure (i.e., R ≈ 1: α-helix; R < 0.4: 3_10-helix) (Table S1)[34],[35]. Helical content (helicity) of peptides was estimated from the intensity of θn → π* values. A negative maximum at 195–200 nm (π → π*) and a weak positive maximum at 217 nm (n → π*) were diagnostic of a random coil structure. […] By adding TFE to HEPES buffer, (αMe)Leu peptide formed a complete right-handed (P) helical structure in a mixture of α- and 3_10-helices (R = 0.57 and 0.56 in Figs 3b and […], respectively). The dominant structures of Ac5c and Leu peptides changed by increased the rate of TFE to eventually be α-/3_10-helices (R = 0.52) and 3_10-helix (R = 0.30), respectively (Fig. 3c). […] Cbz-[L-Leu-L-Leu-(S,S)-Ac5c^dOM]3-OMe was reported to form a right-handed (P) helical structure in 50% TFE/H2O[37]. L-Leu might contribute to stabilization of the peptide helical secondary structure as well as (S,S)-Ac5c^dOM. Destabilization of the peptide helical secondary structure by L-Arg might be stronger than stabilization of it by (S,S)-Ac5c^dOM. Taken together with the results of CD spectra (Fig. 3), in which helicity of peptides was estimated from the intensity of θn → π* values, stability in the helicity of the peptides in the current study was as follows: (αMe)Leupeptide>Ac5cpeptide≈Leupeptide>Ac5c^dOMpeptide≈Argpeptide.
Figure 3 CD spectra of peptides in (a) HEPES buffer, (b) 40% TFE/HEPES buffer, and (c) 75% TFE/HEPES buffer. Peptide concentration: 24 µM.
Optical rotation [α]^rtD was measured using a Jasco DIP-370 polarimeter (JASCO, Tokyo, Japan) using a 0.5 dm cell. Infrared (IR) spectra were recorded using a Shimadzu IR Affinity-1 spectrometer (Shimadzu Corporation, Kyoto, Japan) for conventional measurement (KBr). CD spectra were recorded using a Jasco J-720W spectropolarimeter (JASCO) with a 1.0 mm path length cell. ^1H NMR (400 MHz) and ^13C NMR (100 MHz) spectra were determined using a JEOL AL 400 spectrometer (JEOL Ltd, Tokyo, Japan). Fast atom bombardment (FAB)-MS was measured using a JEOL JMS-700N (JEOL). MALDI-TOF-MS spectra were recorded using a Bruker Ultrax spectrometer (Bruker Daltonics, Fermont, CA). Piperidine was purchased from Tokyo Chemical Industry Co., Ltd. (Tokyo, Japan). Fmoc-L-Arg(Pbf)-OH, Fmoc-Gly-OH, Fmoc-L-Leu-OH, and CLEAR-Amide resin were purchased from the Peptide Institute., Inc. (Osaka, Japan). Fmoc-(S)-(αMe)Leu-OH was obtained from Nagase & Co., Ltd. (Kyoto, Japan). Fmoc-Ac5c-OH was purchased from Watanabe Chemical Industries, Ltd. (Hiroshima, Japan). HATU, HBTU, HOAt, and HOBt were from AAPPTec (Louisville, KY). COMU was from Novabiochem (Tokyo, Japan). CF and Dulbecco’s modified Eagle’s medium (DMEM) were obtained from Sigma-Aldrich Co. (St. Louis, MO). diisopropylethylamine (DIPEA) and heparin were purchased from Wako Pure Chemicals Co., Inc. (Osaka, Japan). Diethyl ether was from Kanto Chemical Co., Inc. (Tokyo, Japan). Trifluoroacetic acid (TFA) was obtained from Nacalai Tesque, Co., Inc. (Kyoto, Japan). Hoechst 33342 and a Cell counting kit-8 were purchased from Dojindo Laboratories (Kumamoto, Japan). LysoTracker Red was from Molecular Probes (Eugene, OR).
Table S1. R values (qπ → π*/qn → π*) of synthetic peptides.
R value (qπ → π*/qn → π* )
HEPES 40% TFE/HEPES 75% TFE/HEPES

[2] = tested on: HeLa cells; assay: Cellular uptake of CF-labeled peptides into HeLa cells (flow cytometry); type: cell-based; conditions: for cellular uptake, course over incubation time: 1 µM peptide, 2, 6 and 24 h, heparin wash, trypsinized, flow cytometry fluorescence, mean of n = 3; for cellular uptake, course over incubation time / cellular uptake compared with Arg peptide: DMEM 10% FBS; for cellular uptake, rank among the peptides containing dAAs / cellular uptake compared with Arg peptide: 1 µM peptide, flow cytometry, n = 3; for cellular uptake, rank among the peptides containing dAAs: 2-24 h; for cellular uptake compared with Arg peptide: 24 h
Description: Cellular uptake of peptides was assessed against HeLa (Fig. 5a) and CHO-K1 cells (Fig. 5b) at a concentration of 1 µM and various incubation times (2, 6, and 24 h). […] Not only stabilities against protease digestion but also other factors might contribute to prolongation of the cell-penetrating ability of peptides. […] The number of Arg residues in Arg-rich peptides is very important for their cell-penetrating ability, and six Arg are not enough. […] Substitution of Arg in Arg peptide with Ac5c, Ac5c^dOM, or (αMe)Leu positively affected its cell-penetrating ability compared with Aib. In comparison, among the peptides containing dAAs, (αMe)Leu peptide was the best for HeLa cell, Ac5c peptide was the best for CHO-K1 cell, and Ac5c^dOM peptide was the worst for both cell types (Fig. 5). Although the best peptides were different depending on cell type, the worst peptide was same for both cell types. […] Taken together, a stable helical structure by introducing dAAs into Arg-rich peptide enhanced their cell-penetrating abilities.
HeLa or CHO-K1 cells were seeded on 24-well culture plates (100,000 cells/well) and incubated in 400 µL of DMEM containing 10% FBS. The medium was then replaced with fresh medium, and a peptide solution was added to each well at a concentration of 1 µM. After each incubation time, the medium was removed and cells were washed with ice-cold PBS with heparin (20 units/mL) and trypsinized. After the addition of medium containing 10% FBS, fluorescence intensity was detected and acquired using an On-chip Flow (On-chip Biotechnologies Co., Ltd, Tokyo, Japan). The results are presented as a mean and standard deviation obtained from 3 samples.

[3] = pH 7.3 HEPES buffer, R ≈ 1 α-helix, R < 0.4 3_10-helix

Row | Compound | R value (θπ → π*/θn → π*) ([1]; 40% TFE/pH 7.3 HEPES buffer) | R value (θπ → π*/θn → π*) ([1]; 75% TFE/pH 7.3 HEPES buffer) | R value (θπ → π*/θn → π*) [1, 3] | cellular uptake, course over incubation time [2] | cellular uptake, rank among the peptides containing dAAs [2] | cellular uptake compared with Arg peptide [2]
1 | CC(C)C[C@](C)(NC(=O)[C@H](CCCNC(=N)N)NC(=O)[C@H](CCCNC(=N)N)NC(=O)[C@](C)(CC(C)C)NC(=O)[C@H](CCCNC(=N)N)NC(=O)[C@H](CCCNC(=N)N)NC(=O)[C@](C)(CC(C)C)NC(=O)[C@H](CCCNC(=N)N)NC(=O)[C@H](CCCNC(=N)N)NC(=O)CNC(=O)c1ccc2c(c1)C(=O)OC21c2ccc(O)cc2Oc2cc(O)ccc21)C(N)=O [(αMe)Leu peptide] (5FAM-GRR[αMeL]RR[αMeL]RR[αMeL]-NH2) | 0.57 | 0.56 | 0.45 | increased cellular uptake from 2 to 6 h incubations and this was maintained after 24 h incubation | the best | higher than that of Arg peptide
2 | N=C(N)NCCC[C@H](NC(=O)CNC(=O)c1ccc2c(c1)C(=O)OC21c2ccc(O)cc2Oc2cc(O)ccc21)C(=O)N[C@@H](CCCNC(=N)N)C(=O)NC1(C(=O)N[C@@H](CCCNC(=N)N)C(=O)N[C@@H](CCCNC(=N)N)C(=O)NC2(C(=O)N[C@@H](CCCNC(=N)N)C(=O)N[C@@H](CCCNC(=N)N)C(=O)NC3(C(N)=O)CCCC3)CCCC2)CCCC1 [Ac5c peptide] (5FAM-GRR[Ac5c]RR[Ac5c]RR[Ac5c]-NH2) | 0.61 | 0.52 | No significant maxima | increased cellular uptake from 2 to 6 h incubations and this was maintained after 24 h incubation |  | higher than that of Arg peptide
3 | CO[C@H]1CC(NC(=O)[C@H](CCCNC(=N)N)NC(=O)[C@H](CCCNC(=N)N)NC(=O)C2(NC(=O)[C@H](CCCNC(=N)N)NC(=O)[C@H](CCCNC(=N)N)NC(=O)C3(NC(=O)[C@H](CCCNC(=N)N)NC(=O)[C@H](CCCNC(=N)N)NC(=O)CNC(=O)c4ccc5c(c4)C(=O)OC54c5ccc(O)cc5Oc5cc(O)ccc54)C[C@H](OC)[C@@H](OC)C3)C[C@H](OC)[C@@H](OC)C2)(C(N)=O)C[C@@H]1OC [Ac5c^dOM peptide] (5FAM-GRR[X1]RR[X1]RR[X1]-NH2) | No significant maxima | No significant maxima | No significant maxima | increased up to 24 h | the worst | higher than that of Arg peptide
